These results are taken from patent US20160158245A1, “PHARMACEUTICAL FORMULATION CONTAINING THIENOTRIAZOLODIAZEPINE COMPOUNDS” (ONCOETHIX GmbH, priority 2013, published 2016).

Common to all, as to assay type: cell-based
In one data set the test system is BV-173. Description: MTT assay. The settings on record: Homo sapiens; BV-173, MTT at 72 h. Here is the method: (§1) Different representative cell lines for ALL including Jurkat cells (T-ALL), RS 4-11 (MLL-AF4 B-precursor ALL), TO′M-1, BV173 (both Ph+ALL) and AML including K562 (Ph+CML in blast crisis,), HL-60 (NRAS driven AML2), NOMO1 (MLL-AF9 driven AML), KG1 (BMP-FGRF+AML6) and its more immature subtype KG1a were cultured in RPMI 1640 (Gibco Invitrogen, Basel, Switzerland) supplemented with 10% or 20% heat-inactivated fetal calf serum respectively, 2 mM L-glutamine, 100 IU/mL penicillin, and 100 µg/mL streptomycin.
(§2) MTT-assay: cells were seeded first into 24-well plates at the density of […] per well to avoid variations of concentrations in smaller volumes and treated with different doses of OTX015 prepared freshly from 1 mM stock solution in DMSO. Cells were transferred to 96-well plates for MTT-assay. Untreated cells and cells treated with equal amounts of DMSO (0.2-1%) used for dilution of OTX015 were used as controls. The 3-(4,5-dimethylthiazol-2-yl)-2,5-diphenyltetrazolium bromide (MTT) (Molecular Probes, Eugene, USA) was prepared as a stock of 5 mg/ml in PBS. 0.5 mg/mL of MTT solution was then added per well and incubated in the dark at 37° C. for 4 h. Cells were then lysed with 25% SDS lysis buffer and absorbance was read at 570 nm. Two independent experiments were run for each cell line. GI50 values were calculated with Prism v5 software (GraphPad Inc., La Jolla, USA).
(§3) AML and ALL cell lines were exposed to increasing concentrations of compound (1-1), (0.1 nM-10 μM). […] GI50 values were expressed as means from 3 independent experiments.
On the technique in general: Tetrazolium dyes change colour on reduction, which living cells bring about.

In another data set the test system is HL60. Description: MTT assay. The settings on record: Homo sapiens, HL-60, HL60, MTT at 72 h. The procedure:
as §1, §2, §3

For the next data set, the system named is Jurkat. As to the kind of experiment: MTT assay. The settings on record: Homo sapiens, MTT at 72 h. Here is the method: as §1, §2, §3
Another data set concerns K562. As to the kind of experiment: MTT assay. The settings on record: Homo sapiens, K562, 72 h, K562, MTT at 72 h. The procedure:
as §1, §2, §3

A further data set relates to KG1a. Description: MTT assay. The settings on record: Homo sapiens, KG-1a, MTT at 72 h. The procedure:
as §1, §2, §3

The subject of the next data set is KG1. As to the kind of experiment: MTT assay. The settings on record: Homo sapiens, KG-1; KG1, MTT at 72 h. The procedure:
as §1, §2, §3

In another data set the test system is NOMO1. As to the kind of experiment: MTT assay. The conditions noted are these: Homo sapiens, NOMO-1; NOMO1, MTT at 72 h. Here is the method:
as §1, §2, §3

A further data set relates to RS4-11. Description: MTT assay. The settings on record: Homo sapiens; RS4-11, MTT at 72 h. The procedure: as §1, §2, §3
The next data set concerns TOM-1. As to the kind of experiment: MTT assay. The conditions noted are these: TOM-1, MTT at 72 h. Here is the method:
as §1, §2, §3

Data set [1] has as its system CD34+ and CD34− AML cells. As to the kind of experiment: Apoptosis in primary cells. The conditions noted are these: CD34+ and CD34− cells of one AML patient, 24 hours. Here is the method:
(§4) a total of 1×10^6 cellsderived from patients or cell lines were resuspended in 1 mL culture medium and incubated with the indicated dosages of OTX015 prepared freshly from 1 mM stock solution in DMSO. Control cells were incubated with the corresponding amount of dimethyl sulfoxide (DMSO 0.2-1%) to exclude toxicity of the excipient. Apoptotic cells were detected by cytofluorometric analysis using a FACScan (Becton Dickinson, Mountain View, USA). Cells were stained with propidium iodide (PI; 5 μg/mL; Becton Dickinson) and concomitantly for 15 minutes at RT with annexin-V-FITC (Becton Dickinson) according to the manufacturer's instructions to determine outer membrane phosphatidyl serine exposure. Data were analyzed with the Flowjo (Tree Star Inc., Ashland, USA) flow cytometry software.
(§5) The efficacy of Compound (1-1) to induce apoptosis in primary cells was investigated. CD34+ and CD34− cells were obtained by positive selection with CD34+ microbeads from cord blood (healthy controls) and one AML patient.

In the next data set the test system is CD34+ cord blood cells. As to the kind of experiment: Apoptosis in primary cells. The conditions noted are these: CD34+ cord blood cells of healthy controls, 500 nM, 24 hours. The procedure:
as §4, §5

A further data set deals with CD34− cord blood cells. Description: Apoptosis in primary cells. The conditions noted are these: CD34− cord blood cells of healthy controls, 24 hours. The procedure:
as §4, §5

In data set [2] the test system is c-MYC in BM cells of patient 5. Description: Immunoblot of c-MYC in patient bone marrow cells treated ex vivo. The conditions noted are these: BM cells of patient 5, 250 and 500 nM, 72 h. The procedure:
FIGS. 45A-45E illustrate modulation of c-MYC at the protein level in a patient sample. Protein extracts were obtained from bone marrow (BM) cells of patient 5 (FIG. 44D; FIGS. 45A-45D) upon ex vivo treatment with 250 and 500 nM of OTX015 respectively. […] Bone marrow cells from patient 5 were treated with OTX015 at 250 nM and 500 nM and compared to controls exposed to according concentrations with DMSO. Proteins were extracted at 72 h and immunoblotted with appropriate c-MYC antibodies after gel electrophoresis. […] Expression level of cMYC relative to ABL were realised by RQ-PCR at three time points 24, 48 and 72 h (FIG. 45B). Results in FIG. 45B are shown with means±SD from duplicates.
The membranes were blocked with LiCor blocking buffer (LiCor, Lincoln, Nebr., USA) and incubated with the respective primary antibody: anti-BRD4 (Epitomics 5716-1, Burlingame, USA), anti-BRD3 (ab56342, AbCam, UK), anti-BRD2 (ab37633, AbCam, UK), anti c-MYC (sc-764 (N262), Santa Cruz, USA) and anti-GAPDH (Invitrogen 398600, Grand Island, USA). Blots were stained with either goat anti-rabbit InfraRedDye 680RD or goat anti-mouse InfraRedDye 800CWsecondary antibody (LiCor). Membranes were imaged using a LiCor Odyssey scanner. […]

Each structure is given as a SMILES string.

One may read the GI50 as the concentration that inhibits growth by half. A low value points to more potent growth inhibition.

Regarding `Cc1sc2c(c1C)C(c1ccc(Cl)cc1)=N[C@@H](CC(=O)Nc1ccc(O)cc1)c1nnc(C)n1-2` [Compound (1-1), 2-[(6S)-4-(4-chlorophenyl)-2,3,9-trimethyl-6H-thienol[3,2-f]-[1,2,4]triazolo[4,3-a][1,4]diazepin-6-yl]-N-(4-hydroxyphenyl)acetamide dihydrate], the GI50 in the data set with BV-173 was found to be 161 nM; in the data set with HL60, 1310 nM; in the data set with Jurkat it was 250 nM; with K562 it was 11300 nM; in the data set with K562 (mean of 3 independent experiments), 11300 nM; in the data set with KG1a, 1340 nM. The 50% growth inhibitory concentration (GI50) was 198 nM in the data set with KG1, 229 nM with NOMO1, 34.2 nM with RS4-11 and 133 nM in the data set with TOM-1. In addition, the IC50 with HL60 (read-out: GI value) and with KG1a (read-out: GI value) was 1300 nM each time. Also, the “in vitro induction of apoptosis” value in [1] is “induction of apoptosis in a dose dependent manner”. For the same compound, the “toxicity (apoptosis) for immature cord blood cells” value with CD34+ cord blood cells is “toxicity for immature CD34+ cells at the 500 nM dose level”. In the data set on CD34− cord blood cells, the “toxicity (apoptosis) for mature cord blood compartment” value was “remained unaffected”. In addition, in data set [2], the c-MYC protein level result was “downregulation of c-MYC”.
